Laboratory results as given in US20240226287A1, “NOVEL LIPID COMPOUND AND LIPID NANOPARTICLE COMPOSITION COMPRISING THE SAME” (KOREA INSTITUTE OF SCIENCE AND TECHNOLOGY, priority 2022, published 2024).

tested on: Renilla Luciferase (R/L) mRNA; test: Delivery efficiency: R/L protein expression after i.d. injection of mRNA-LNP into mouse ears (luminescence); format: in vivo, ICR mice; conditions: conclusion from FIGS. 4 to 8; replacing cholesterol/butyl lithocholate in LNP
Method: mRNA-LNP was injected into the ears of ICR mice by I.D. in an amount of 5 μg/20 μl based on RNA to identify expression.
The experimental process is as follows. Each experimental group was prepared in a dose of 5 μg/20 μl based on RNA and then injected into each ear of mice by I.D. Thereafter, the expression was identified according to the maximum expression time of a target protein. In the case of R/L on which the experiment was actually carried out, expression and maintenance were identified according to two time periods which are 6 hours and 24 hours.
After anesthesia using an individual respiratory anesthesia machine, a drug to be administered that is suitable for the experimental condition was injected via an insulin syringe. Thereafter, euthanasia was performed using CO2 at each corresponding time, and then ears were cut off. While dipping the cut ears in 300 μl of 1× Renilla Lyswas buffer, ears were completely crushed using scissors and a homogenizer instrument. Thereafter, 20 μl was taken from the mixture solution, transferred to a white 96-well plate, and added with 100 μl of Promega's Renilla luciferase assay substrate, and then luminescence was measured to compare expression.

Row | Structure (SMILES) | effect as substitute for the structure-retaining compound (R/L expression of the LNP)
1 | C[C@H](CCC(=O)O)[C@H]1CC[C@H]2[C@@H]3CC[C@@H]4CC(=O)CC[C@]4(C)[C@H]3CC[C@]12C [3-oxo-5β-cholanoic acid] | excellent effects
2 | CC1=C(/C=C/C(C)=C/C=C/C(C)=C/C=C/C=C(C)/C=C/C=C(C)/C=C/C2=C(C)CCCC2(C)C)C(C)(C)CCC1 [beta-carotene] | excellent effects
3 | O=c1cc(-c2ccc(O)c(O)c2)oc2cc(O)cc(O)c12 [luteolin] | excellent effects
